Consider 33 compounds from US9334246B2, “Substituted triazines for malaria treatment and chemoprophylaxis” (The United States of America, as represented by the …, priority 2013, dated 2016).

Common to all, as to assay type: cell-based, Plasmodium falciparum
Conditions in all cases: SYBR Green Assay

For one assay, the system named is P. falciparum D6. Description: Malaria SYBR Green Fluorescence Assay, D6 strain.
The test system of another assay is P. falciparum C235. The experiment in a line: Malaria SYBR Green Fluorescence Assay, C235 strain.
For a further assay, the system named is P. falciparum W2. Description: Malaria SYBR Green Fluorescence Assay, W2 strain.

In turn, `CCN(CC)CCNc1nc(-c2ccccc2OC)nc(C(Cl)(Cl)Cl)n1` [Cmpd 107] came in with a D6 in the assay on P. falciparum D6 of 212 ng/mL. Also, in the assay with P. falciparum C235, the C235 was found to be 158 ng/mL. In the assay with P. falciparum W2, this compound showed a W2 of 95 ng/mL.
In the same order, the values of `COc1ccc(-c2nc(N3CCCN(C)CC3)nc(C(Cl)(Cl)Cl)n2)cc1` [Cmpd 111] are 191 ng/mL, 232 ng/mL and 103 ng/mL.
In the same order, the values of `Cc1ccc(-c2nc(N3CCCN(C)CC3)nc(C(Cl)(Cl)Cl)n2)cc1` [Cmpd 112] are 168 ng/mL, 209 ng/mL and 107 ng/mL.
In turn, `CC(C)(C)c1ccc(-c2nc(N3CCCNCC3)nc(C(Cl)(Cl)Cl)n2)cc1` [Cmpd 115] displayed a D6 in the assay with P. falciparum D6 of 357 ng/mL. This compound registered a C235 in the assay with P. falciparum C235 of 360 ng/mL. In addition, in the assay with P. falciparum W2, the W2 was 242 ng/mL.
In the same order, the values of `CCN(CC)CCNc1nc(-c2ccccc2C)nc(C(Cl)(Cl)Cl)n1` [Cmpd 123] are 57 ng/mL, 67 ng/mL and 31 ng/mL.
In the assay on P. falciparum D6, `CN(Cc1ccccc1-c1cccnc1)c1nc(-c2ccc(S(C)(=O)=O)cc2)nc(C(Cl)(Cl)Cl)n1` [Cmpd 129] showed a D6 of 170 ng/mL. The compound further returned a C235 in the assay with P. falciparum C235 of 233 ng/mL. The same compound displayed a W2 with P. falciparum W2 of 102 ng/mL.
In the same order, the values of `CS(=O)(=O)c1ccc(-c2nc(N3CCCN(CCO)CC3)nc(C(Cl)(Cl)Cl)n2)cc1` [Cmpd 132] are 64 ng/mL, 200 ng/mL and 103 ng/mL.
The matching figures for `Clc1ccc(-c2nc(NCCc3ccncc3)nc(C(Cl)(Cl)Cl)n2)cc1` [Cmpd 139]: 202 ng/mL, 320 ng/mL and 81 ng/mL.
In the same order, the values of `Clc1ccc(-c2nc(NCc3ccccn3)nc(C(Cl)(Cl)Cl)n2)cc1` [Cmpd 141] are 556 ng/mL, 652 ng/mL and 237 ng/mL.
Regarding `Clc1ccc(-c2nc(NCc3cccnc3)nc(C(Cl)(Cl)Cl)n2)cc1` [Cmpd 142], in the assay with P. falciparum D6, the D6 turned out to be 306 ng/mL. The C235 in the assay on P. falciparum C235 is recorded as 469 ng/mL. This compound also had a W2 with P. falciparum W2 of 112 ng/mL.
As for `Cc1ccc(-c2nc(NCCc3ccncc3)nc(C(Cl)(Cl)Cl)n2)cc1` [Cmpd 145], the D6 in the assay with P. falciparum D6 was 168 ng/mL. In the assay with P. falciparum C235, this compound displayed a C235 of 344 ng/mL. This compound gave a W2 in the assay with P. falciparum W2 of 94 ng/mL.
The matching figures for `COc1ccccc1-c1nc(NCCc2ccncc2)nc(C(Cl)(Cl)Cl)n1` [Cmpd 146]: 539 ng/mL, 804 ng/mL and 246 ng/mL.
In the same order, the values of `COc1ccc(-c2nc(NCCc3ccncc3)nc(C(Cl)(Cl)Cl)n2)cc1` [Cmpd 147] are 155 ng/mL, 233 ng/mL and 77 ng/mL.
In the same order, the values of `CC(C)(C)c1ccc(-c2nc(NCCc3ccncc3)nc(C(Cl)(Cl)Cl)n2)cc1` [Cmpd 148] are 621 ng/mL, 671 ng/mL and 151 ng/mL.
In the assay with P. falciparum D6, `COc1cccc(-c2nc(NCCc3ccncc3)nc(C(Cl)(Cl)Cl)n2)c1` [Cmpd 151] yielded a D6 of 346 ng/mL. Besides, the C235 in the assay on P. falciparum C235 is 549 ng/mL. Further, in the assay with P. falciparum W2, the W2 turned out to be 133 ng/mL.
Turning to `COc1cccc(-c2nc(NCc3cccnc3)nc(C(Cl)(Cl)Cl)n2)c1` [Cmpd 155], the D6 with P. falciparum D6 turned out to be 318 ng/mL. This compound had a C235 with P. falciparum C235 of 614 ng/mL. In the assay on P. falciparum W2, this compound registered a W2 of 145 ng/mL.
In the same order, the values of `CC(C)(C)c1ccc(-c2nc(NCc3cccnc3)nc(C(Cl)(Cl)Cl)n2)cc1` [Cmpd 158] are 260 ng/mL, 324 ng/mL and 92 ng/mL.
The matching figures for `CSc1ccc(-c2nc(NCc3cccnc3)nc(C(Cl)(Cl)Cl)n2)cc1` [Cmpd 160]: 789 ng/mL, 896 ng/mL and 238 ng/mL.
Compound `COc1ccc(-c2nc(NCc3ccccn3)nc(C(Cl)(Cl)Cl)n2)cc1` [Cmpd 168] showed a D6 in the assay on P. falciparum D6 of 755 ng/mL. The same compound returned a C235 in the assay on P. falciparum C235 of 898 ng/mL. The W2 in the assay on P. falciparum W2 was 338 ng/mL.
In the case of `Cc1ccc(-c2nc(NCCc3cccnc3)nc(C(Cl)(Cl)Cl)n2)cc1` [Cmpd 172], the D6 with P. falciparum D6 amounted to 209 ng/mL. Further, in the assay with P. falciparum C235, the C235 is given as 346 ng/mL. The compound further showed a W2 in the assay on P. falciparum W2 of 106 ng/mL.
The matching figures for `COc1ccc(-c2nc(NCCc3cccnc3)nc(C(Cl)(Cl)Cl)n2)cc1` [Cmpd 174]: 430 ng/mL, 641 ng/mL and 181 ng/mL.
As for `CC(C)(C)c1ccc(-c2nc(NCCc3cccnc3)nc(C(Cl)(Cl)Cl)n2)cc1` [Cmpd 175], the D6 in the assay on P. falciparum D6 came out at 110 ng/mL. The compound also had a C235 in the assay with P. falciparum C235 of 165 ng/mL. Besides, the W2 with P. falciparum W2 was determined as 54 ng/mL.
Compound `CS(=O)(=O)c1ccc(-c2nc(NCc3ccccn3)nc(C(Cl)(Cl)Cl)n2)cc1` [Cmpd 177] displayed a D6 in the assay on P. falciparum D6 of 355 ng/mL. The C235 in the assay on P. falciparum C235 came to 565 ng/mL. This compound gave a W2 in the assay on P. falciparum W2 of 186 ng/mL.
The matching figures for `CS(=O)(=O)c1ccc(-c2nc(NCCc3ccncc3)nc(C(Cl)(Cl)Cl)n2)cc1` [Cmpd 178]: 392 ng/mL, 518 ng/mL and 162 ng/mL.
In the same order, the values of `CS(=O)(=O)c1ccc(-c2nc(NCCc3cccnc3)nc(C(Cl)(Cl)Cl)n2)cc1` [Cmpd 179] are 471 ng/mL, 680 ng/mL and 201 ng/mL.
For `COc1ccc(-c2nc(NCCc3ccccn3)nc(C(Cl)(Cl)Cl)n2)cc1` [Cmpd 185], in the assay with P. falciparum D6, the D6 is reported as 185 ng/mL. The same compound gave a C235 in the assay with P. falciparum C235 of 244 ng/mL. Also, in the assay with P. falciparum W2, the W2 amounted to 63 ng/mL.
In the same order, the values of `FC(F)(F)c1cccc(-c2nc(NCCc3ccccn3)nc(C(Cl)(Cl)Cl)n2)c1` [Cmpd 186] are 494 ng/mL, 499 ng/mL and 115 ng/mL.
With `ClC(Cl)(Cl)c1nc(NCCc2ccccn2)nc(-c2ccccc2)n1` [Cmpd 188], the D6 in the assay with P. falciparum D6 came out at 176 ng/mL. The C235 with P. falciparum C235 came out at 197 ng/mL. Besides, the W2 in the assay with P. falciparum W2 is recorded as 42 ng/mL.
In the same order, the values of `ClC(Cl)(Cl)c1nc(NCCCN2CCCC2)nc(-c2ccc(-c3ccccc3)cc2)n1` [Cmpd 197] are 128 ng/mL, 137 ng/mL and 105 ng/mL.
Consider `ClC(Cl)(Cl)c1nc(-c2ccc(-c3ccccc3)cc2)nc(N2CCCNCC2)n1` [Cmpd 198], for which the D6 in the assay with P. falciparum D6 is reported as 64 ng/mL. The same compound showed a C235 in the assay with P. falciparum C235 of 70 ng/mL. In addition, the W2 in the assay with P. falciparum W2 is 40 ng/mL.
As for `Clc1cc(Cl)cc(-c2nc(N3CCCNCC3)nc(C(Cl)(Cl)Cl)n2)c1` [Cmpd 204], the D6 in the assay with P. falciparum D6 amounted to 231 ng/mL. Besides, the C235 in the assay with P. falciparum C235 is 214 ng/mL. Further, the W2 in the assay with P. falciparum W2 amounted to 78 ng/mL.
In the same order, the values of `Clc1cc(Cl)cc(-c2nc(NCc3cccnc3)nc(C(Cl)(Cl)Cl)n2)c1` [Cmpd 209] are 122 ng/mL, 112 ng/mL and 67 ng/mL.
The matching figures for `Clc1cc(Cl)cc(-c2nc(NCc3ccccn3)nc(C(Cl)(Cl)Cl)n2)c1` [Cmpd 210]: 112 ng/mL, 78 ng/mL and 72 ng/mL.
